{
  "source": "ChEMBL document CHEMBL1212720",
  "about": "“Identification of the toxic trigger in mushroom poisoning” (Nat Chem Biol, 2009)",
  "key": {"Mus musculus [1]": {"test_system": "Mus musculus", "assay": "Toxicity in po dosed ICR mouse assessed as decreased in mobility after 3 hrs", "type": "organism-based", "conditions": "in vivo"}, "Klebsiella": {"test_system": "Klebsiella", "assay": "Antibacterial activity against Klebsiella after 18 to 48 hrs by serial dilution method", "type": "functional"}, "Staphylococcus": {"test_system": "Staphylococcus", "assay": "Antibacterial activity against Staphylococcus after 18 to 48 hrs by serial dilution method", "type": "functional"}, "Homo sapiens [2]": {"organism": "Homo sapiens", "assay": "Cytotoxicity against human neuronal tumor cells at 100 ug/ml by MTT assay", "type": "functional, cell-based"}, "Mus musculus [3]": {"test_system": "Mus musculus", "assay": "Induction of rhabdomyolysis in ICR mouse assessed as serum creatine […] level at 5 mg/kg, po after 4 hrs by spectrophotometry (reference value: 240 +/- 34 U/L)", "type": "organism-based", "design": "dose 5 mg/kg, route oral", "conditions": "in vivo"}, "Shigella": {"test_system": "Shigella", "assay": "Antibacterial activity against Shigella after 18 to 48 hrs by serial dilution method", "type": "functional"}, "Bacillus": {"test_system": "Bacillus", "assay": "Antibacterial activity against Bacillus after 18 to 48 hrs by serial dilution method", "type": "functional"}, "[4]": {"assay": "Antibacterial activity against Cryptococcus after 18 to 48 hrs by serial dilution method", "type": "functional"}, "Enterococcus": {"test_system": "Enterococcus", "assay": "Antibacterial activity against Enterococcus after 18 to 48 hrs by serial dilution method", "type": "functional"}, "Homo sapiens [5]": {"organism": "Homo sapiens", "assay": "Cytotoxicity against human astrocytoma cells at 100 ug/ml by MTT assay", "type": "functional, cell-based"}, "Salmonella": {"test_system": "Salmonella", "assay": "Antibacterial activity against Salmonella after 18 to 48 hrs by serial dilution method", "type": "functional"}, "Serratia": {"test_system": "Serratia", "assay": "Antibacterial activity against Serratia after 18 to 48 hrs by serial dilution method", "type": "functional"}, "Pseudomonas": {"test_system": "Pseudomonas", "assay": "Antibacterial activity against Pseudomonas after 18 to 48 hrs by serial dilution method", "type": "functional"}, "[6]": {"assay": "Cytotoxicity against mouse DRG neuron at 100 ug/ml by MTT assay"}, "Candida": {"test_system": "Candida", "assay": "Antifungal activity against Candida after 18 to 48 hrs by serial dilution method", "type": "functional"}, "Mycobacterium": {"test_system": "Mycobacterium", "assay": "Antibacterial activity against Mycobacterium after 18 to 48 hrs by serial dilution method", "type": "functional"}, "Proteus": {"test_system": "Proteus", "assay": "Antibacterial activity against Proteus after 18 to 48 hrs by serial dilution method", "type": "functional"}, "sarcoma": {"test_system": "sarcoma", "assay": "Cytotoxicity against human synovial sarcoma cells at 100 ug/ml by MTT assay", "type": "functional, cell-based"}, "[7]": {"assay": "Chemical stability of the compound at 20 degC assessed as half life", "type": "physicochemical"}, "Corynebacterium": {"test_system": "Corynebacterium", "assay": "Antibacterial activity against Corynebacterium after 18 to 48 hrs by serial dilution method", "type": "functional"}, "Mus musculus [8]": {"organism": "Mus musculus", "assay": "Cytotoxicity against mouse neuronal tumor cells at 100 ug/ml by MTT assay", "type": "functional, cell-based"}, "Mus musculus [9]": {"test_system": "Mus musculus", "assay": "Toxicity in ip dosed ICR mouse assessed as decreased in mobility after 3 hrs", "type": "organism-based", "conditions": "in vivo"}, "[10]": {"assay": "Cytotoxicity against mouse hyphalamic cells at 100 ug/ml by MTT assay", "type": "cell-based"}, "Micrococcus": {"test_system": "Micrococcus", "assay": "Antibacterial activity against Micrococcus after 18 to 48 hrs by serial dilution method", "type": "functional"}, "Saccharomyces": {"test_system": "Saccharomyces", "assay": "Antifungal activity against Saccharomyces after 18 to 48 hrs by serial dilution method", "type": "functional"}, "Escherichia": {"test_system": "Escherichia", "assay": "Antibacterial activity against Escherichia after 18 to 48 hrs by serial dilution method", "type": "functional"}, "[11]": {"assay": "Toxicity in po dosed mouse", "type": "organism-based", "conditions": "in vivo"}, "[12]": {"assay": "(§1) Toxicity in po dosed rat", "type": "organism-based", "conditions": "in vivo"}, "Rattus norvegicus": {"test_system": "Rattus norvegicus", "assay": "as §1", "type": "organism-based", "conditions": "in vivo"}, "Mus musculus [13]": {"test_system": "Mus musculus", "assay": "Induction of rhabdomyolysis in ICR mouse assessed as serum creatine […] level at 70 mg/kg, po after 4 hrs by spectrophotometry (reference value: 240 +/- 34 U/L)", "type": "organism-based", "design": "dose 70 mg/kg, route oral", "conditions": "in vivo"}},
  "data": [
    {"smiles": "CC1=CC1C(=O)O", "note": "(centres undefined)", "values": [
      {"measurement": "LD100", "setting": "Mus musculus [1]", "value": 50, "unit": "mg/kg"}
    ]},
    {"smiles": "O=C(O)C1C=C1", "values": [
      {"measurement": "MIC", "setting": "Klebsiella", "value": "> 100", "unit": "µg/mL"},
      {"measurement": "MIC", "setting": "Staphylococcus", "value": "> 100", "unit": "µg/mL"},
      {"measurement": "Activity", "setting": "Homo sapiens [2]", "value": "Not toxic"},
      {"measurement": "Activity", "setting": "Mus musculus [3]", "value": 3441, "unit": "U/L"},
      {"measurement": "MIC", "setting": "Shigella", "value": "> 100", "unit": "µg/mL"},
      {"measurement": "MIC", "setting": "Bacillus", "value": "> 100", "unit": "µg/mL"},
      {"measurement": "MIC", "setting": "[4]", "value": "> 100", "unit": "µg/mL"},
      {"measurement": "MIC", "setting": "Enterococcus", "value": "> 100", "unit": "µg/mL"},
      {"measurement": "Activity", "setting": "Homo sapiens [5]", "value": "Not toxic"},
      {"measurement": "MIC", "setting": "Salmonella", "value": "> 100", "unit": "µg/mL"},
      {"measurement": "MIC", "setting": "Serratia", "value": "> 100", "unit": "µg/mL"},
      {"measurement": "MIC", "setting": "Pseudomonas", "value": "> 100", "unit": "µg/mL"},
      {"measurement": "Activity", "setting": "[6]", "value": "Non-toxic"},
      {"measurement": "MIC", "setting": "Candida", "value": "> 100", "unit": "µg/mL"},
      {"measurement": "MIC", "setting": "Mycobacterium", "value": "> 100", "unit": "µg/mL"},
      {"measurement": "MIC", "setting": "Proteus", "value": "> 100", "unit": "µg/mL"},
      {"measurement": "Activity", "setting": "sarcoma", "value": "Not toxic"},
      {"measurement": "half-life", "setting": "[7]", "value": 20, "unit": "h"},
      {"measurement": "MIC", "setting": "Corynebacterium", "value": "> 100", "unit": "µg/mL"},
      {"measurement": "Activity", "setting": "Mus musculus [8]", "value": "Not toxic"},
      {"measurement": "LD100", "setting": "Mus musculus [9]", "value": 2.5, "unit": "mg/kg"},
      {"measurement": "Activity", "setting": "[10]", "value": "Non-toxic"},
      {"measurement": "MIC", "setting": "Micrococcus", "value": "> 100", "unit": "µg/mL"},
      {"measurement": "MIC", "setting": "Saccharomyces", "value": "> 100", "unit": "µg/mL"},
      {"measurement": "LD100", "setting": "Mus musculus [1]", "value": 2.5, "unit": "mg/kg"},
      {"measurement": "MIC", "setting": "Escherichia", "value": "> 100", "unit": "µg/mL"}
    ]},
    {"smiles": "C=C(C)C(=O)O", "note": "[METHACRYLIC ACID]", "values": [
      {"measurement": "LD50", "setting": "[11]", "value": 1600, "unit": "mg/kg"}
    ]},
    {"smiles": "CCCC(=O)O", "note": "[BUTYRIC ACID]", "values": [
      {"measurement": "LD50", "setting": "[12]", "value": 8790, "unit": "mg/kg"},
      {"measurement": "LDLO", "setting": "Rattus norvegicus", "value": 500, "unit": "mg/kg"},
      {"measurement": "LD100", "setting": "Mus musculus [1]", "value": 5000, "unit": "mg/kg"}
    ]},
    {"smiles": "CCC(=O)O", "note": "[PROPIONIC ACID]", "values": [
      {"measurement": "LD50", "setting": "[11]", "value": 5100, "unit": "mg/kg"}
    ]},
    {"smiles": "C/C=C/C(=O)O", "note": "[CROTONIC ACID]", "values": [
      {"measurement": "LD50", "setting": "[11]", "value": 400, "unit": "mg/kg"},
      {"measurement": "LD100", "setting": "Mus musculus [1]", "value": 2500, "unit": "mg/kg"}
    ]},
    {"smiles": "CC1=C(C)C1C(=O)O", "values": [
      {"measurement": "LD100", "setting": "Mus musculus [1]", "value": "> 250", "unit": "mg/kg"}
    ]},
    {"smiles": "C#CC(=O)O", "note": "[PROPIOLIC ACID]", "values": [
      {"measurement": "LD50", "setting": "[11]", "value": 100, "unit": "mg/kg"}
    ]},
    {"smiles": "CC(=O)O", "note": "[ACETIC ACID]", "values": [
      {"measurement": "LD50", "setting": "[11]", "value": 4960, "unit": "mg/kg"},
      {"measurement": "LD100", "setting": "Mus musculus [1]", "value": 2500, "unit": "mg/kg"}
    ]},
    {"smiles": "Nc1ccc(N)cc1", "values": [
      {"measurement": "Activity", "setting": "Mus musculus [13]", "value": 397, "unit": "U/L"}
    ]}
  ]
}
